According to US8455440B2, “Combination anticoagulant therapy with a compound that acts as a factor Xa inhibitor” (Millennium Pharmaceuticals, Inc., priority 2007, dated 2013):
Values joined by “and” are separate entries in the source; they are usually repeats but may differ in a detail not shown here. Equal values may be shown once. Marks after values point to notes of the source that are not given here.

What was measured:
[1] = test system: ferric chloride induced thrombosis in rat carotid artery; assay: Ferric chloride induced thrombosis in rat carotid artery; format: in vivo; details: for % Did not occlude (inhibition of rat thrombosis) / Number of animals without occlusion: intravenous infusion; for Number of animals without occlusion: 10 animals; for time to occlusion: animals that had vessel occlusion
[2] = Plasma concentrations of Compound A in telemeterized dogs; format: in vivo; details: combination with verapamil
From the text: It is further contemplated that in patients being treated for atrial fibrillation, blood pressure lowering drugs such as beta blockers or calcium channel blockers and Compound A may be used concomitantly. Drugs like verapamil are known inhibitors of p-glycoprotein function. […] See Example 10.
The study was designed to evaluate the in vivo effect of Compound A upon co-administration with a selective L type calcium channel blocker, verapamil. Three beagle dogs were implanted with Data Science Telemetry transmitters (DSI model # TL11M2-D70-PCT) to measure conscious (un-anaesthetized) and unrestrained systolic and diastolic blood pressure following oral dosing with Compound A, verapamil or a combination of the two. The study design was a three way crossover with one week between doses to ensure complete elimination of residual agents from the dogs' circulatory system. Data was analyzed for a twelve hour period, starting with one hour pre-oral dosing of Compound A and ending with eleven hours post-dosing. Data acquisition and analysis was performed using LDS Life Science Suite Ponemah P3 plus V 4.20 software with results reported as 10 minute averages for each animal.

cytokine release = assay: Ex vivo assay of human cytokine release in collagen activated whole blood; format: cell-based; details: Compound A single treatment (50 to 500 nM), blood of healthy untreated donors, collagen 4 μg/mL
Procedure: An ex vivo assay system of human cytokine release was used to test whether inhibition of factor Xa should augment the effect of reduction of inflammation elicited by standard anti-inflammatory drugs, such as aspirin.
Following addition of Compound A (50 to 500 nM) to the blood samples, control and treated samples were activated by addition of collagen (Chronolog, 4 μg/mL) and gently rotated at 37° C. for 45 min. At the end of the activation period, blood samples were centrifuged at 13,000 rpm (15,000 g) for 5 min in an Eppendorf 5415G centrifuge. Plasma was removed, treated with protease inhibitor cocktail (Roche) and stored frozen at −80° C. Cytokines released from the blood cells were quantitated in a Multiplexed Biomarker Immunoassay for Luminex Instrumentation (Millipore USA). […] For example, in the plasma samples from six donors, the mean amount of interleukin 4 was 28.4 pg/mL in the untreated control and 26.8 to 29.4 pg/mL in the Compound A treated samples. […] Thus in this ex vivo system Compound A was capable of providing additional beneficial effect over a widely used anti-inflammatory agent.

Rhesus Monkeys = assay: Template bleed times in rhesus monkeys; format: in vivo, rhesus monkey; details: for Template Bleed Times / Template Bleed Times, Mean of all times / Template Bleed Times, Mean per animal / Template Bleed Times, Mean for time points 1-24 hr (post-Compound A dosing): in min (unit assumed); for Template Bleed Times, Mean of animals: mean of two animals; for Template Bleed Times, Mean of all times: all times (0-24 hr)
From the text: Injectable heparins are often dose limited by their bleeding consequences which result in a narrow therapeutic window for treatment effects.

factor Xa = molecular target: T1, factor Xa (Bos taurus, UniProt P00743); assay: Anti-factor Xa unit assay; format: biochemical, human; details: total knee replacement patients, 15 mg or 40 mg oral twice a day
T1 construct: purchased Diapharma COATEST LMW Heparin
Procedure: The anti-factor Xa (anti-fXa) assay was adapted from a commercial kit (Diapharma COATEST LMW Heparin) and modified to a 96-well format. A low molecular weight heparin, dalteparin, included in the kit was used to construct a standard curve according to the manufacture's instruction using pooled platelets poor plasma. All samples and standards were assayed in duplicate. The limit of quantitation was 0.05 U/mL and results below 0.05 U/mL were reported as below the limit of quantitation. The upper limit of measurement for the plate assay was 1.0 U/mL and samples with anti-factor Xa units higher than 1.0 U/mL were re-assayed after dilution. The coefficient of variation (CV) for both standards and clinical samples were 10%.

thrombin generation = assay: Thrombin generation assay in platelet rich plasma (PRP); format: biochemical, human
Procedure: PRP and PPP were prepared by spinning the anticoagulated blood at ˜100×g or 1000×g for 20 minutes, respectively, at room temperature. Platelet counts in PRP were adjusted with homologous PPP to about 200,000 platelets/μL. For thrombin generation in 100 μL reaction mixture, 75 μL PRP was first mixed with CaCl2, convulxin, and Z-Gly-Gly-Arg-aminomethylcoumarin (Z-GGR-AMC, a thrombin fluorogenic substrate) for 3 minutes at 37° C., followed by adding tissue factor (Innovin, Dade Behring) to initiate the generation of thrombin. A typical reaction mixture contained 15 mM Ca^2+, 0.1 μg/mL convulxin, 100 μM Z-GGR-AMC, and 0.1 nM TF (tissue factor) (Innovin). Thrombin formation was monitored continuously at 37° C. by a fluorometric plate reader (Molecular Devices) measuring the relative fluorescence units (RFU). Inhibitors were pre-incubated with plasma for 20 minutes at room temperature before adding CaCl2 and convulxin.
Non-ASA represents result from donors free of aspirin. ASA represents results from donors taken aspirin for at least three days. % Inhibition was calculated by normalization of mean RFU (n=5) to Non-ASA at 0 nM Compound A.

T1 sequence (P00743 234-492 limits assumed): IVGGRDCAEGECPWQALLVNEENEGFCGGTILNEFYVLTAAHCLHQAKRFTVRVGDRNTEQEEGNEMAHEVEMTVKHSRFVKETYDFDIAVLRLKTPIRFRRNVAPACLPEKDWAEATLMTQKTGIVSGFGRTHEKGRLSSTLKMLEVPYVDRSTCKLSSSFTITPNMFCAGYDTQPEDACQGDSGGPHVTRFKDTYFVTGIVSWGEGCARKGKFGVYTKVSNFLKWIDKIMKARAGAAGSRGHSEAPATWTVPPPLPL
T1 sequence (P00743 41-180 partner limits assumed): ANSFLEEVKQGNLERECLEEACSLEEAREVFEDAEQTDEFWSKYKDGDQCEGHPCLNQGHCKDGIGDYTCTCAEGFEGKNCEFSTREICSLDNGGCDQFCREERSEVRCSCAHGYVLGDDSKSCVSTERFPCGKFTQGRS

**Q.** What does the source list for COc1ccc(NC(=O)c2ccc(C(=N)N(C)C)cc2)c(C(=O)Nc2ccc(Cl)cn2)c1 [Compound A, [2-({4-[(dimethylamino)iminomethyl]phenyl}carbonylamino)-5-methoxyphenyl]-N-(5-chloro(2-pyridyl))carboxamide]?
**A.** % Did not occlude (inhibition of rat thrombosis) ([1]; 0.03 μM Compound A): 30%; Number of animals without occlusion ([1]; 0.03 μM Compound A): 3; time to occlusion ([1]; 0.03 μM Compound A): 27.07; % Did not occlude (inhibition of rat thrombosis) ([1]; 0.1 μM Compound A): 60%; Number of animals without occlusion ([1]; 0.1 μM Compound A): 6; time to occlusion ([1]; 0.1 μM Compound A): 52.66; % Did not occlude (inhibition of rat thrombosis) ([1]; 0.3 μM Compound A): 90%; Number of animals without occlusion ([1]; 0.3 μM Compound A): 9; time to occlusion ([1]; 0.3 μM Compound A): 35.78; % DNO (inhibition of rat thrombosis) ([1]; Compound A 0.03 μM iv infusion, aspirin 3 mg/kg iv bolus, or both): 30%; TTO (Time to occlusion) ([1]; average for animals that occluded, Compound A 0.03 μM, aspirin 3 mg/kg, or both): 27.07 ± 7.36 min; DNO (did not occlude) ([1]; number of 10 animals, Compound A 0.03 μM iv infusion, aspirin 3 mg/kg iv bolus, or both): 3; plasma concentrations of Compound A, dual treatment versus single treatment [2]: about two times higher; inhibition of cytokine release (cytokine release): did not produce statistically significant inhibition of cytokine release; Template Bleed Times (Rhesus Monkeys; 4.0 mg/kg, 1 hr, individual animals (Rhesus # 30675, 30973)): 1.50 and 3.75; Template Bleed Times, Mean of animals (Rhesus Monkeys; 4.0 mg/kg, 1 hr): 2.63 min; Template Bleed Times (Rhesus Monkeys; 4.0 mg/kg, 2 hr, individual animals (Rhesus # 30675, 30973)): 1.50; Template Bleed Times, Mean of animals (Rhesus Monkeys; 4.0 mg/kg, 2 hr): 1.5 min; Template Bleed Times (Rhesus Monkeys; 4.0 mg/kg, 3 hr, individual animals (Rhesus # 30675, 30973)): 1.50; Template Bleed Times, Mean of animals (Rhesus Monkeys; 4.0 mg/kg, 3 hr): 1.5 min; Template Bleed Times (Rhesus Monkeys; 4.0 mg/kg, 8 hr, individual animals (Rhesus # 30675, 30973)): 2.00; Template Bleed Times, Mean of animals (Rhesus Monkeys; 4.0 mg/kg, 8 hr): 2 min; Template Bleed Times (Rhesus Monkeys; 4.0 mg/kg, 24 hr, individual animals (Rhesus # 30675, 30973)): 2.50; Template Bleed Times, Mean of animals (Rhesus Monkeys; 4.0 mg/kg, 24 hr): 2.5 min; Template Bleed Times, Mean of all times (Rhesus Monkeys; 4.0 mg/kg): 1.98*; Template Bleed Times, Mean per animal (Rhesus Monkeys; 4.0 mg/kg, mean over time points of each animal (Rhesus # 30675, 30973)): 1.80 and 2.25; Template Bleed Times, Mean for time points 1-24 hr (post-Compound A dosing) (Rhesus Monkeys; 4.0 mg/kg): 2.03**; Template Bleed Times (Rhesus Monkeys; 7.5 mg/kg, 1 hr, individual animals (Rhesus # 25285, 27678)): 3.00 and 2.00; Template Bleed Times, Mean of animals (Rhesus Monkeys; 7.5 mg/kg, 1 hr): 2.5 min; Template Bleed Times (Rhesus Monkeys; 7.5 mg/kg, 2 hr, individual animals (Rhesus # 25285, 27678)): 2.50 and 1.75; Template Bleed Times, Mean of animals (Rhesus Monkeys; 7.5 mg/kg, 2 hr): 2.13 min; Template Bleed Times (Rhesus Monkeys; 7.5 mg/kg, 3 hr, individual animals (Rhesus # 25285, 27678)): 2.50 and 2.00; Template Bleed Times, Mean of animals (Rhesus Monkeys; 7.5 mg/kg, 3 hr): 2.25 min; Template Bleed Times (Rhesus Monkeys; 7.5 mg/kg, 8 hr, individual animals (Rhesus # 25285, 27678)): 4.00 and 2.50; Template Bleed Times, Mean of animals (Rhesus Monkeys; 7.5 mg/kg, 8 hr): 3.25 min; Template Bleed Times (Rhesus Monkeys; 7.5 mg/kg, 24 hr, individual animals (Rhesus # 25285, 27678)): 2.50; Template Bleed Times, Mean of animals (Rhesus Monkeys; 7.5 mg/kg, 24 hr): 2.5 min; Template Bleed Times, Mean of all times (Rhesus Monkeys; 7.5 mg/kg): 2.50*; Template Bleed Times, Mean per animal (Rhesus Monkeys; 7.5 mg/kg, mean over time points of each animal (Rhesus # 25285, 27678)): 2.90 and 2.15; Template Bleed Times, Mean for time points 1-24 hr (post-Compound A dosing) (Rhesus Monkeys; 7.5 mg/kg): 2.53**; bleeding times (Rhesus Monkeys; supra-therapeutic doses (7 to 35 times greater than the 0.21 mg/kg to 0.57 mg/kg human therapeutic doses)): did not extend of bleeding times; bleeding time in monkeys (Rhesus Monkeys; therapeutic levels, plasma concentrations between 5 to 25 ng/mL): did not cause extension of bleeding; effect on anti-factor Xa levels (factor Xa): dose- and concentration-dependent effect; % Inhibition of thrombin generation (thrombin generation; ASA donors, 7.8125 nM Compound A, normalized to Non-ASA at 0 nM): 24.6%; % Inhibition of thrombin generation (thrombin generation; ASA donors, 15.625 nM Compound A, normalized to Non-ASA at 0 nM): 26.9%; % Inhibition of thrombin generation (thrombin generation; ASA donors, 31.25 nM Compound A, normalized to Non-ASA at 0 nM): 33.4%; % Inhibition of thrombin generation (thrombin generation; ASA donors, 62.5 nM Compound A, normalized to Non-ASA at 0 nM): 46.0%; % Inhibition of thrombin generation (thrombin generation; ASA donors, 125 nM Compound A, normalized to Non-ASA at 0 nM): 64.7%; % Inhibition of thrombin generation (thrombin generation; ASA donors, 250 nM Compound A, normalized to Non-ASA at 0 nM): 82.5%; % Inhibition of thrombin generation (thrombin generation; ASA donors, 500 nM Compound A, normalized to Non-ASA at 0 nM): 94.6%; % Inhibition of thrombin generation (thrombin generation; Non-ASA donors, 7.8125 nM Compound A): 3.2%; % Inhibition of thrombin generation (thrombin generation; Non-ASA donors, 15.625 nM Compound A): 5.1%; % Inhibition of thrombin generation (thrombin generation; Non-ASA donors, 31.25 nM Compound A): 12.2%; % Inhibition of thrombin generation (thrombin generation; Non-ASA donors, 62.5 nM Compound A): 25.2%; % Inhibition of thrombin generation (thrombin generation; Non-ASA donors, 125 nM Compound A): 55.1%; % Inhibition of thrombin generation (thrombin generation; Non-ASA donors, 250 nM Compound A): 81.1%; % Inhibition of thrombin generation (thrombin generation; Non-ASA donors, 500 nM Compound A): 96.0%
